# In ChEMBL document CHEMBL4049391, “Vicinal diaryl azole-based urea derivatives as potential cholesterol lowering agents acting through inhibition of SOAT enzymes” (Eur J Med Chem, 2017):
# Experiments:
# [1] = Inhibition of rat microsomal SOAT assessed as reduction in cholesteryl oleate formation from oleoyl co-enzyme A pretreated for 15 mins followed by oleoyl co-enzyme A addition after 10 mins by HPTLC method
# Rattus norvegicus [2] = species: Rattus norvegicus; assay: Inhibition of rat microsomal SOAT assessed as reduction in cholesteryl oleate formation from oleoyl co-enzyme A at 10 uM pretreated for 15 mins followed by oleoyl co-enzyme A addition measured after 10 mins by HPTLC method relative to control
# Rattus norvegicus [3] = assay: Anti-hypercholesterolemic activity in poloxamer-407-induced Wistar rat lipoprotein lipase inhibition model assessed as fold change in triglyceride level at 20 mg/kg administered as single dose via oral gavage pretreated for 4 hrs followed by poloxamer-407 induction measured over 24 hrs (reference value: 80); format: functional
# [4] = target: T1, Sterol O-acyltransferase 2 (Homo sapiens, UniProt O75908); assay: Inhibition of human SOAT2
# T1 sequence (O75908 whole entry): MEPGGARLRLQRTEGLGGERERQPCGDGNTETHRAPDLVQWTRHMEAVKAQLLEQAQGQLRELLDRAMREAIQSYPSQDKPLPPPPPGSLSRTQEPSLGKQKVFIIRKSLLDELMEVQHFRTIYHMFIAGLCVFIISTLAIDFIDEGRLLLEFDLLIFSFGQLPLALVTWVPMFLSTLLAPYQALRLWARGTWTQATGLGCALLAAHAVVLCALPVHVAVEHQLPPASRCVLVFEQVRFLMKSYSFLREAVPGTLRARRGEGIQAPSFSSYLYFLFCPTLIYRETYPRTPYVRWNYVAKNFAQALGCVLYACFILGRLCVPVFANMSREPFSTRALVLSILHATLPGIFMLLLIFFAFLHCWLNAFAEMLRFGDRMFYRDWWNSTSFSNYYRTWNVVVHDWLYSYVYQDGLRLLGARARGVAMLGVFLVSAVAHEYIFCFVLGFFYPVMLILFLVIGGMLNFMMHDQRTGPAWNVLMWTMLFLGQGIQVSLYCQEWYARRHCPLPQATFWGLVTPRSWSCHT
Structure (SMILES),IC50 [1],pIC50 [1],inhibition (Rattus norvegicus [2]),IC50 [4],fold change (FC) (Rattus norvegicus [3])
CC(C)c1cc(C(C)C)c(CC(=O)NS(=O)(=O)Oc2c(C(C)C)cccc2C(C)C)c(C(C)C)c1 [AVASIMIBE],–,–,–,–,20
Cc1ccc(-c2nonc2-c2ccc(NC(=O)Nc3ccc(F)cc3F)cc2)cc1,20.1 µM,4.697,13.5%,–,–
CCCCCCCCCCCCNC(=O)Nc1ccc(-c2nonc2-c2ccc(F)cc2)cc1,12.4 µM,4.905,50.1%,–,–
O=C(NCCCCCCSc1nc(-c2ccccc2)c(-c2ccccc2)[nH]1)Nc1ccc(F)cc1F,–,–,–,1.74 µM,–
CCCCNC(=O)Nc1nc(-c2ccc(OC)cc2)c(-c2ccc(Cl)cc2)s1,62.9 µM,4.2014,27.6%,–,–
CCc1cccc(CC)c1NC(=O)Nc1ccc(-c2sc(C)nc2-c2ccc(OC)cc2)cc1,43.6 µM,4.3606,31.6%,–,–

# Continued, in another order:
IC50 [1],pIC50 [1],inhibition (Rattus norvegicus [2]),IC50 [4],Structure (SMILES),fold change (FC) (Rattus norvegicus [3])
6.27 µM,5.202,60.7%,–,CCCCNC(=O)Nc1ccc(-c2sc(C)nc2-c2ccc(Cl)cc2)cc1,50 - 90
7.85 µM,5.105,52.2%,–,CCCCCCCNC(=O)Nc1ccc(-c2sc(C)nc2-c2ccc(Cl)cc2)cc1,50 - 90
8.4 µM,5.075,46.7%,–,CCc1cccc(CC)c1NC(=O)Nc1ccc(-c2sc(C)nc2-c2ccc(F)cc2)cc1,50 - 90
11.8 µM,4.926,42.1%,–,Cc1nc(-c2ccc(F)cc2)c(-c2ccc(NC(=O)Nc3c(C(C)C)cccc3C(C)C)cc2)s1,–
12.1 µM,4.916,51.7%,–,COc1ccc(-c2nc(NC(=O)Nc3ccc(F)cc3F)sc2-c2ccc(NC(C)C)cc2)cc1,–
5.69 µM,5.244,63%,–,CCCCCCCNC(=O)Nc1ccc(-c2sc(C)nc2-c2ccc(F)cc2)cc1,50 - 90
10.7 µM,4.972,56.9%,–,COc1ccc(-c2nc(NC(=O)Nc3ccccc3)sc2-c2ccc(Cl)cc2)cc1,–
4.04 µM,5.3936,63.3%,–,CCc1cccc(CC)c1NC(=O)Nc1ccc(-c2sc(C)nc2-c2ccc(Cl)cc2)cc1,50 - 90
9.73 µM,5.011,44.9%,–,CCc1cccc(CC)c1NC(=O)Nc1ccc(-c2nonc2-c2ccc(F)cc2)cc1,–
